Test [1] concerns the target T1, Neuronal acetylcholine receptor; alpha3/beta4 (Rattus norvegicus, UniProt P04757+P12392). The test can be described thus: Antagonist activity at rat alpha3beta4 nACHR expressed in xenopous laevis oocyte assessed as inhibition of ACh induced channel current after 5 mins at -70 mV holding potential by two electrode voltage clamp method. Background: Two-electrode voltage clamp is typically applied to oocytes expressing channels or transporters.

In test [2] the target is T2, Nicotinic acetylcholine receptor alpha6/alpha3/beta4 (Rattus norvegicus, UniProt P04757+P12392+P43143). As to the kind of experiment: Antagonist activity at rat alpha6/alpha3beta4 nACHR expressed in xenopous laevis oocyte assessed as inhibition of ACh induced channel current after 5 mins at -70 mV holding potential by two electrode voltage clamp method.
T2 sequence (P04757 whole entry): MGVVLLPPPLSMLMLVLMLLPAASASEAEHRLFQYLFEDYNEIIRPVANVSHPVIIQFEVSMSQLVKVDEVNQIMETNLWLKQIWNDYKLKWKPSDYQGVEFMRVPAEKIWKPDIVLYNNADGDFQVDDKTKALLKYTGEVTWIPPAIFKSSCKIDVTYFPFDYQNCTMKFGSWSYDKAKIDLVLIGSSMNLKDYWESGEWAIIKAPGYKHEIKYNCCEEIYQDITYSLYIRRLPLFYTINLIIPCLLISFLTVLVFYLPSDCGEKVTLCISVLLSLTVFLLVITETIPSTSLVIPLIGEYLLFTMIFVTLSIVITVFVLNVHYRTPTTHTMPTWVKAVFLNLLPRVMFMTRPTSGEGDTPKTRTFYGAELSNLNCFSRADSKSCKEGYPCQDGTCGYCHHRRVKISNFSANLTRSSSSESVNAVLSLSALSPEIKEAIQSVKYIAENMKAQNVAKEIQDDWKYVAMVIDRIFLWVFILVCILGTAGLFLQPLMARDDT
T2 sequence (P12392 whole entry): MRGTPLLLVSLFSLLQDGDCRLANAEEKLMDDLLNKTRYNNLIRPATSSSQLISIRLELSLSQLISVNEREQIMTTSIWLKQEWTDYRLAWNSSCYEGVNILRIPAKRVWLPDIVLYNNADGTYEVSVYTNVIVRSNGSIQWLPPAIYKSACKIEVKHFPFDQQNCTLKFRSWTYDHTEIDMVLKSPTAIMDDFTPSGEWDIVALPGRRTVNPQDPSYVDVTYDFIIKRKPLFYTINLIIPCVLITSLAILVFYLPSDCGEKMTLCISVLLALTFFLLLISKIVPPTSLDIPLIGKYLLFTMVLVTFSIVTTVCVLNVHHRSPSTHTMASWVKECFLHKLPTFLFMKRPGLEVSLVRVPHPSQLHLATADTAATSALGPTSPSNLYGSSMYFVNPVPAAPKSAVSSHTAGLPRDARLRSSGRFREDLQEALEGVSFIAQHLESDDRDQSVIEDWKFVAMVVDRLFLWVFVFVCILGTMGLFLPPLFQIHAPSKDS
T2 sequence (P43143 whole entry): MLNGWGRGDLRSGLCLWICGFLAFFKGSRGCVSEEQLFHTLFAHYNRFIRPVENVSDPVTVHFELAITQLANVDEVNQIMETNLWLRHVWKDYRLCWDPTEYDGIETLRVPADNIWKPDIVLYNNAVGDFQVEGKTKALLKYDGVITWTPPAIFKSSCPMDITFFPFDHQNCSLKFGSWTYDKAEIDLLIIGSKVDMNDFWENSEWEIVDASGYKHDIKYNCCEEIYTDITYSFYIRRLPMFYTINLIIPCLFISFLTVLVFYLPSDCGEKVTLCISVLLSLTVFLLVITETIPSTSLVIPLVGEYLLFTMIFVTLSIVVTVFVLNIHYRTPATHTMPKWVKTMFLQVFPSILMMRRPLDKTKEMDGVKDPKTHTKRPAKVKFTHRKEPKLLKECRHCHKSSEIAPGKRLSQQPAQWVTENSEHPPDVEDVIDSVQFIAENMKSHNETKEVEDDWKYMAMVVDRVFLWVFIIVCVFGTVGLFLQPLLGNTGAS
Test [3] addresses T2, Nicotinic acetylcholine receptor alpha6/alpha3/beta4. As to the kind of experiment: Antagonist activity at rat alpha6/alpha3beta4 nACHR expressed in xenopous laevis oocyte assessed as inhibition of ACh induced channel current at -80 mV holding potential by two electrode voltage clamp method.
For another test, the species on record is Rattus norvegicus. The test can be described thus: Selectivity ratio of IC50 for rat alpha6/alpha3beta4 nACHR expressed in xenopous laevis oocyte at -80 mV holding potential to IC50 for rat alpha3beta4 nACHR expressed in xenopous laevis oocyte at -80 mV holding potential.
In test [4] the target is T1, Neuronal acetylcholine receptor; alpha3/beta4. As to the kind of experiment: Antagonist activity at rat alpha3beta4 nACHR expressed in xenopous laevis oocyte assessed as inhibition of ACh induced channel current at -80 mV holding potential by two electrode voltage clamp method.
The target in test [5] is Neuronal acetylcholine receptor subunit alpha-7 (Rattus norvegicus, UniProt Q05941). As to the kind of experiment: Antagonist activity at rat alpha7 nACHR expressed in xenopous laevis oocyte assessed as inhibition of ACh induced channel current after 5 mins at -70 mV holding potential by two electrode voltage clamp method.
Sequence of Neuronal acetylcholine receptor subunit alpha-7 (Q05941 whole entry): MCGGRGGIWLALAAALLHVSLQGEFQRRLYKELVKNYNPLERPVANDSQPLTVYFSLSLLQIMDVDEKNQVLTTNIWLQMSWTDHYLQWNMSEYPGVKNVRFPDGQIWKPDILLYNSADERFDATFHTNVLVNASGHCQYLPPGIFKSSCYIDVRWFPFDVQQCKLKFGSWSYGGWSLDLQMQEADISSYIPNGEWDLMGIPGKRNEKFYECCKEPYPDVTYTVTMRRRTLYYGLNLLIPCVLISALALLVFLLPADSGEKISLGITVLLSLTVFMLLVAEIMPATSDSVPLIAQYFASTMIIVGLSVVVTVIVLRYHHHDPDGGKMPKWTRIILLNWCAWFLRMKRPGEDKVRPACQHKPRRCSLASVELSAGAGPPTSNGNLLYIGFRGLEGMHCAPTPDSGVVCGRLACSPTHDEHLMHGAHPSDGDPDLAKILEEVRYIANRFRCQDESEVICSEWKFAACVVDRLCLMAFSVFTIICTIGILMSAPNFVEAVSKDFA
For test [6], the target named is Nicotinic acetylcholine receptor alpha9/alpha10 (Rattus norvegicus, UniProt P43144+Q9JLB5). The test can be described thus: Antagonist activity at rat alpha9alpha10 nACHR expressed in xenopous laevis oocyte assessed as inhibition of ACh induced channel current after 5 mins at -70 mV holding potential by two electrode voltage clamp method.
For test [7], the target named is Neuronal acetylcholine receptor; alpha4/beta2 (Rattus norvegicus, UniProt P09483+P12390). The test can be described thus: Antagonist activity at rat alpha4beta2 nACHR expressed in xenopous laevis oocyte assessed as inhibition of ACh induced channel current after 5 mins at -70 mV holding potential by two electrode voltage clamp method.
Test [8] addresses Neuronal acetylcholine receptor; alpha2/beta2 (Rattus norvegicus, UniProt P12389+P12390). As to the kind of experiment: Antagonist activity at rat alpha2beta2 nACHR expressed in xenopous laevis oocyte assessed as inhibition of ACh induced channel current after 5 mins at -70 mV holding potential by two electrode voltage clamp method.
In test [9] the target is Neuronal acetylcholine receptor; alpha3/beta2 (Rattus norvegicus, UniProt P04757+P12390). As to the kind of experiment: Antagonist activity at rat alpha3beta2 nACHR expressed in xenopous laevis oocyte assessed as inhibition of ACh induced channel current after 5 mins at -70 mV holding potential by two electrode voltage clamp method.
Test [10] concerns the target Neuronal acetylcholine receptor; alpha4/beta4 (Rattus norvegicus, UniProt P09483+P12392). The test can be described thus: Antagonist activity at rat alpha4beta4 nACHR expressed in xenopous laevis oocyte assessed as inhibition of ACh induced channel current after 5 mins at -70 mV holding potential by two electrode voltage clamp method.
The target in test [11] is Neuronal acetylcholine receptor; alpha2/beta4 (Rattus norvegicus, UniProt P12389+P12392). As to the kind of experiment: Antagonist activity at rat alpha2beta4 nACHR expressed in xenopous laevis oocyte assessed as inhibition of ACh induced channel current after 5 mins at -70 mV holding potential by two electrode voltage clamp method.
Sequence of Neuronal acetylcholine receptor; alpha2/beta4 (P12389 whole entry): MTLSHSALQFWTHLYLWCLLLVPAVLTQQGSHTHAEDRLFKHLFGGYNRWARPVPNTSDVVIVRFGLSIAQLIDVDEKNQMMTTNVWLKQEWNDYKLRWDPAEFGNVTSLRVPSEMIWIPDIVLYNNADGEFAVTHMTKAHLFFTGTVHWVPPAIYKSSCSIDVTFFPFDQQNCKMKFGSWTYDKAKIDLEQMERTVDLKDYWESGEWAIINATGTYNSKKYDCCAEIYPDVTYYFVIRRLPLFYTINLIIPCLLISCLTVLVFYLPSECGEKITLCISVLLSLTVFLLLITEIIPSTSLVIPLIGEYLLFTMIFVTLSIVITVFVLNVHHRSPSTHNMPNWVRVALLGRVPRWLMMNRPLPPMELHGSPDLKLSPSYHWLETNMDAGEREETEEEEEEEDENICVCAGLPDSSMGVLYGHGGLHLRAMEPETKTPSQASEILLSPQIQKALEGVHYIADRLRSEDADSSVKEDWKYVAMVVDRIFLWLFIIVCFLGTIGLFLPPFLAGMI
Sequence of Neuronal acetylcholine receptor; alpha2/beta4 (P12392 whole entry): as the sequence (P12392 whole entry) above

The record followed here is ChEMBL document CHEMBL4011630 (J Med Chem, 2017).

Where a SMILES comes first, the peptide text is derived from it. Bridges are numbered along the chain shown (N, C = ends). [ ]: non-standard residue; d: D form. hMet = CSCCC[C@H](N)C(=O)O

T1 sequence (P04757 whole entry): as the sequence (P04757 whole entry) above
T1 sequence (P12392 whole entry): as the sequence (P12392 whole entry) above
Sequence of Neuronal acetylcholine receptor; alpha2/beta2 (P12389 whole entry): as the sequence (P12389 whole entry) above
Sequence of Neuronal acetylcholine receptor; alpha2/beta2 (P12390 whole entry): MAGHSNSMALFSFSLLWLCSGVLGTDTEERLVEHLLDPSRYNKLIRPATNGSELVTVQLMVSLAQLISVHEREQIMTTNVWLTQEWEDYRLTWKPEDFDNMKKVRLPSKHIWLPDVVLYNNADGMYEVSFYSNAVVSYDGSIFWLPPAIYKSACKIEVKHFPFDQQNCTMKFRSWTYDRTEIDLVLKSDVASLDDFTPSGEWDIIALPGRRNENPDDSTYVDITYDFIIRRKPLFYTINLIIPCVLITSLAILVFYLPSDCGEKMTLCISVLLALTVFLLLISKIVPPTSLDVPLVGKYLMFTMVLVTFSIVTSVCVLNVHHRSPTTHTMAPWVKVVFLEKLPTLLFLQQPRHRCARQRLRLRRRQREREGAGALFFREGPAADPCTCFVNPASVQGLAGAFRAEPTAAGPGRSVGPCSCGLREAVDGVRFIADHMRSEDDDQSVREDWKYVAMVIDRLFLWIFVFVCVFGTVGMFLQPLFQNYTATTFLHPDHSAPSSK

For `CC[C@H](C)[C@@H]1NC(=O)[C@@H]2CCCN2C(=O)[C@H](CO)NC(=O)[C@H](CCCSC)NC(=O)[C@H](C)NC(=O)[C@H](CO)NC(=O)[C@@H]2CSSC[C@H](NC(=O)CN)C(=O)N[C@@H](CSSC[C@@H](C(N)=O)NC1=O)C(=O)N[C@@H](CO)C(=O)N[C@@H](Cc1cnc[nH]1)C(=O)N[C@@H](C)C(=O)N[C@@H](C(C)C)C(=O)N2` (H-GCCSHAVCSA[hMet]SPIC-NH2; disulfide 2-8, 3-15), the IC50 in [1] and in test [2] was over 10 µM each time.
Turning to `CSCCC[C@@H]1NC(=O)[C@H](C)NC(=O)[C@H](CO)NC(=O)[C@@H]2CSSC[C@H](NC(=O)CN)C(=O)N[C@@H](CSSC[C@@H](C(N)=O)NC(=O)[C@H](CCCNC(=N)N)NC(=O)[C@@H]3CCCN3C(=O)[C@H](CO)NC1=O)C(=O)N[C@@H](CO)C(=O)N[C@@H](Cc1cnc[nH]1)C(=O)N1CCC[C@H]1C(=O)N[C@@H](C(C)C)C(=O)N2` (H-GCCSHPVCSA[hMet]SPRC-NH2; disulfide 2-8, 3-15), the IC50 in test [1] turned out to be 0.0098 µM; in test [2], 0.0408 µM.
As to `CC[C@H](C)[C@@H]1NC(=O)[C@H](Cc2cnc[nH]2)NC(=O)[C@@H]2CCCN2C(=O)[C@H](CC(N)=O)NC(=O)[C@H](CC(N)=O)NC(=O)[C@H](C(C)C)NC(=O)[C@H](CC(N)=O)NC(=O)[C@@H]2CSSC[C@H](NC(=O)[C@@H](NC(=O)CN)CSSC[C@H](C(=O)O)NC1=O)C(=O)N[C@@H](CO)C(=O)N[C@@H](Cc1c[nH]cn1)C(=O)N1CCC[C@H]1C(=O)N[C@@H](C)C(=O)N2`, the IC50 is 0.147 µM in test [3] and 0.0473 µM in test [4]. Also, in the test listed under Rattus norvegicus, the Ratio IC50 was 3.1.
For the molecule `C[C@@H]1NC(=O)[C@H](Cc2ccc(O)cc2)NC(=O)[C@@H]2CSSC[C@H](NC(=O)CN)C(=O)N[C@@H](CSSC[C@@H](C(N)=O)NC(=O)[C@H](CC(=O)O)NC(=O)[C@@H]3CCCN3C(=O)[C@H](CC(N)=O)NC(=O)[C@H]([C@@H](C)O)NC1=O)C(=O)N[C@@H](CO)C(=O)N[C@@H](Cc1ccc(O)cc1)C(=O)N1CCC[C@H]1C(=O)N1CCC[C@H]1C(=O)N2` (H-GCCSYPPCYATNPDC-NH2; disulfide 2-8, 3-15), in test [1], the concentration for half-maximal inhibition (IC50) was found to be 0.75 µM.
Turning to `CC[C@H](C)[C@@H]1NC(=O)[C@@H]2CCCN2C(=O)[C@H](CO)NC(=O)[C@H](CCCSC)NC(=O)[C@H](C)NC(=O)[C@H](CO)NC(=O)[C@@H]2CSSC[C@H](NC(=O)CN)C(=O)N[C@@H](CSSC[C@@H](C(N)=O)NC1=O)C(=O)N[C@@H](CO)C(=O)N[C@@H](C)C(=O)N1CCC[C@H]1C(=O)N[C@@H](C(C)C)C(=O)N2` (H-GCCSAPVCSA[hMet]SPIC-NH2; disulfide 2-8, 3-15), the IC50 in [1] and in [2] was over 10 µM throughout.
Regarding `CC[C@H](C)[C@@H]1NC(=O)[C@@H]2CCCN2C(=O)[C@H](CO)NC(=O)[C@H](CCCSC)NC(=O)[C@H](C)NC(=O)[C@H](CO)NC(=O)[C@@H]2CSSC[C@H](NC(=O)[C@H](C)N)C(=O)N[C@@H](CSSC[C@@H](C(N)=O)NC1=O)C(=O)N[C@@H](CO)C(=O)N[C@@H](Cc1cnc[nH]1)C(=O)N1CCC[C@H]1C(=O)N[C@@H](C(C)C)C(=O)N2` (H-ACCSHPVCSA[hMet]SPIC-NH2; disulfide 2-8, 3-15), the IC50 came to 0.0619 µM in test [1] and 0.278 µM in test [2].
On the same counts, the results for `CSCCC[C@@H]1NC(=O)[C@H](C)NC(=O)[C@H](CO)NC(=O)[C@@H]2CSSC[C@H](NC(=O)CN)C(=O)N[C@@H](CSSC[C@@H](C(N)=O)NC(=O)[C@H](C)NC(=O)[C@@H]3CCCN3C(=O)[C@H](CO)NC1=O)C(=O)N[C@@H](CO)C(=O)N[C@@H](Cc1cnc[nH]1)C(=O)N1CCC[C@H]1C(=O)N[C@@H](C(C)C)C(=O)N2` (H-GCCSHPVCSA[hMet]SPAC-NH2; disulfide 2-8, 3-15) are 0.0161 µM and 0.0458 µM.
On the same counts, the results for `CC[C@H](C)[C@@H]1NC(=O)[C@@H]2CCCN2C(=O)[C@H](CO)NC(=O)[C@H](CCCSC)NC(=O)[C@H](C)NC(=O)[C@H](CO)NC(=O)[C@@H]2CSSC[C@H](NC(=O)CN)C(=O)N[C@@H](CSSC[C@@H](C(N)=O)NC1=O)C(=O)N[C@@H](C)C(=O)N[C@@H](Cc1cnc[nH]1)C(=O)N1CCC[C@H]1C(=O)N[C@@H](C(C)C)C(=O)N2` (H-GCCAHPVCSA[hMet]SPIC-NH2; disulfide 2-8, 3-15) are 0.0108 µM and 0.0641 µM.
Take `CSCCC[C@@H]1NC(=O)[C@H](C)NC(=O)[C@H](CO)NC(=O)[C@@H]2CSSC[C@H](NC(=O)CN)C(=O)N[C@@H](CSSC[C@@H](C(N)=O)NC(=O)[C@H](CC(=O)O)NC(=O)[C@@H]3CCCN3C(=O)[C@H](CO)NC1=O)C(=O)N[C@@H](CO)C(=O)N[C@@H](Cc1cnc[nH]1)C(=O)N1CCC[C@H]1C(=O)N[C@@H](C(C)C)C(=O)N2` (H-GCCSHPVCSA[hMet]SPDC-NH2; disulfide 2-8, 3-15): the IC50 in test [1] was 0.0092 µM; in [2], 0.0674 µM.
`CC[C@H](C)[C@@H]1NC(=O)[C@H](CO)NC(=O)[C@@H]2CSSC[C@H](NC(=O)CN)C(=O)N[C@@H](CSSC[C@@H](C(N)=O)NC(=O)[C@H]([C@@H](C)CC)NC(=O)[C@@H]3CCCN3C(=O)[C@H](CO)NC(=O)[C@H](CCCSC)NC1=O)C(=O)N[C@@H](CO)C(=O)N[C@@H](Cc1cnc[nH]1)C(=O)N1CCC[C@H]1C(=O)N[C@@H](C(C)C)C(=O)N2` (H-GCCSHPVCSI[hMet]SPIC-NH2; disulfide 2-8, 3-15): the IC50 in test [1] was 0.0749 µM; in [2], 0.0504 µM.
As for `CC(C)C[C@@H]1NC(=O)[C@H](C(C)C)NC(=O)[C@H](C)NC(=O)[C@@H]2CSSC[C@H](NC(=O)CN)C(=O)N[C@@H](CSSC[C@H](C(N)=O)NC(=O)[C@H](Cc3ccc(O)cc3)NC1=O)C(=O)N[C@@H](CO)C(=O)N[C@@H](C)C(=O)N[C@@H](CCCN)C(=O)N1CCC[C@H]1C(=O)N2`, the half-maximal inhibitory concentration (IC50) in test [1] was determined as 1.2 µM; in test [2], 0.0581 µM.
For `CC[C@H](C)[C@@H]1NC(=O)[C@H](Cc2cnc[nH]2)NC(=O)[C@@H]2CCCN2C(=O)[C@H](C)NC(=O)[C@H](C)NC(=O)[C@H](C(C)C)NC(=O)[C@H](CC(N)=O)NC(=O)[C@@H]2CSSC[C@H](NC(=O)[C@@H](NC(=O)CN)CSSC[C@H](C(=O)O)NC1=O)C(=O)N[C@@H](CO)C(=O)N[C@@H](Cc1c[nH]cn1)C(=O)N1CCC[C@H]1C(=O)N[C@@H](C)C(=O)N2`, the values for the IC50 in test [3] and in test [4] were 5.1 µM and 0.37 µM, respectively. For the same molecule, the Ratio IC50 in the test filed under Rattus norvegicus was 14.
For `CSCCC[C@@H]1NC(=O)[C@H](C)NC(=O)[C@H](CO)NC(=O)[C@@H]2CSSC[C@H](NC(=O)CN)C(=O)N[C@@H](CSSC[C@@H](C(N)=O)NC(=O)[C@H](Cc3ccc(O)cc3)NC(=O)[C@@H]3CCCN3C(=O)[C@H](CO)NC1=O)C(=O)N[C@@H](CO)C(=O)N[C@@H](Cc1cnc[nH]1)C(=O)N1CCC[C@H]1C(=O)N[C@@H](C(C)C)C(=O)N2` (H-GCCSHPVCSA[hMet]SPYC-NH2; disulfide 2-8, 3-15), the IC50 was 0.01 µM in test [1] and 0.0387 µM in [2].
Turning to `CC[C@H](C)[C@@H]1NC(=O)[C@@H]2CCCN2C(=O)[C@H](CO)NC(=O)[C@H](CCCSC)NC(=O)[C@H](C)NC(=O)[C@H](C)NC(=O)[C@@H]2CSSC[C@H](NC(=O)CN)C(=O)N[C@@H](CSSC[C@@H](C(N)=O)NC1=O)C(=O)N[C@@H](CO)C(=O)N[C@@H](Cc1cnc[nH]1)C(=O)N1CCC[C@H]1C(=O)N[C@@H](C(C)C)C(=O)N2` (H-GCCSHPVCAA[hMet]SPIC-NH2; disulfide 2-8, 3-15), the IC50 in test [5], in test [6], in [7], in test [8], in [9] and in test [10] was over 10 µM in each case. Besides, the IC50 in test [11] is over 10 µM.
Consider `CC[C@H](C)[C@@H]1NC(=O)[C@H](C)NC(=O)[C@H](CO)NC(=O)[C@H](CCCSC)NC(=O)[C@H](C)NC(=O)[C@H](CO)NC(=O)[C@@H]2CSSC[C@H](NC(=O)CN)C(=O)N[C@@H](CSSC[C@@H](C(N)=O)NC1=O)C(=O)N[C@@H](CO)C(=O)N[C@@H](Cc1cnc[nH]1)C(=O)N1CCC[C@H]1C(=O)N[C@@H](C(C)C)C(=O)N2` (H-GCCSHPVCSA[hMet]SAIC-NH2; disulfide 2-8, 3-15), for which the IC50 in test [1] and in [2] was over 10 µM in each case.

A word on the IC50: it is the midpoint of a concentration-inhibition curve.
